One series concerns B16-F10 melanoma cells. In words: 48 hr cytotoxicity, B16-F10 melanoma. It counts as cell-based, murine. The note with it: 10% FBS, individual values. Here is the method:
B16-F10 (ATCC; CRL-6475), DU 145 (ATCC; HTB-81), HEK293 (ATCC; CRL-1573), HT-29 (ATCC; HTB-38), LoVo (ATCC; CCL-229), MDA-MB-231 (ATCC; HTB-26), MIA PaCa-2 (ATCC; CRL-1420), NCI-H292 (ATCC; CRL-1848), OVCAR-3 (ATCC, HTB-161), PANC-1 (ATCC; CRL-1469), PC-3 (ATCC; CRL-1435), RPMI 8226 (ATCC; CCL-155) and U266 (ATCC; TIB-196) are maintained in appropriate culture media. The cells are cultured in an incubator at 37° C. in 5% CO2 and 95% humidified air.
For cell growth inhibition assays, B16-F10, DU 145, HEK293, HT-29, LoVo, MDA-MB-231, MIA PaCa-2, NCI-H292, OVCAR-3, PANC-1, PC-3, RPMI 8226 and U266 cells are seeded at 1.25×10^3, 5×10^3, 1.5×10^4, 5×10^3, 5×10^3, 1×10^4, 2×10^3, 4×10^3, 1×10^4, 7.5×10^3, 5×10^3, 2×10^4, 2.5×10^4 cells/well respectively in 90 μl complete media into Corning 3904 black-walled, clear-bottom tissue culture plates. 20 mM stock solutions of compounds of Formula II, IIA, and IIB are prepared in 100% DMSO, aliquoted and stored at −80° C. Compounds of Formula II, IIA, and IIB are serially diluted and added in triplicate to the test wells resulting in final concentrations ranging from of 20 μM to 0.2 pM. The plates are returned to the incubator for 48 hours. The final concentration of DMSO is 0.25% in all samples.
Following 48 hours of drug exposure, 10 μl of 0.2 mg/ml resazurin (obtained from Sigma-Aldrich Chemical Co.) in Mg^2+, Ca^2+ free phosphate buffered saline is added to each well and the plates are returned to the incubator for 3-6 hours. Since living cells metabolize Resazurin, the fluorescence of the reduction product of Resazurin is measured using a Fusion microplate fluorometer (Packard Bioscience) with λex=535 nm and λem=590 nm filters. Resazurin dye in medium without cells was used to determine the background, which is subtracted from the data for all experimental wells.

The next series concerns the target NIK (Homo sapiens, UniProt Q99558). The series is classed as biochemical. The note with it: for inhibition of the NIK kinase activity: transfected cells stimulated with LPS/IFNγ in the presence of compound. Here is the method: The tubes were gently vortexed for 15 s and centrifuged at 8000×g for 15 min. The supernatant (1 ml) was pre-cleared, and NIK was immunoprecipitated with 1 μg of anti-myc Ab. After extensive washing of the immunoprecipitate with buffer A, the pellet was resuspended in kinase buffer (modified buffer A containing 0.1 mM EDTA, 5 mM MgCl2 and 10 nM okadaic acid). Kinase activity was assayed in 100 μl of kinase buffer containing 100 ng of immunoprecipitate, 50 μM [γ-^32P]ATP (0.5 μCi) and 100 ng of MBP as substrate.

A further series deals with TPA-induced ear edema. In words: TPA-induced mouse ear edema model. The series is classed as in vivo. Particulars: 500 ng per ear topically with TPA, 4 h. Here is the method:
2.5 μg of TPA dissolved in 20 μl of DMSO, was applied to both surfaces of the right ear of each mouse. The left ear (control) received the vehicle (DMSO). Tested compounds were administered topically (500 ng per ear in 20 μl of DMSO) simultaneously with TPA application. The reference drug, indomethacin, was administered at the same doses. After 4 h, the animals were killed by cervical dislocation and a 6 mm diameter disc from each ear was removed with a metal punch and weighed. Ear edema was calculated by subtracting the weight of the left ear (vehicle) from the right ear (treatment). Ear sections were homogenized in 750 μl of saline. After centrifugation at 10000×g for 15 min at 4° C., myeloperoxidase (MPO) activity was measured in supernatants.

Series [1] deals with TNF-α production in THP-1 cells. In words: LPS-induced TNF-α production in differentiated THP-1 cells (FLISA). Particulars: Homo sapiens, read-out: Percent TNF-α Inhibition; for inhibition at 0.1 µg/mL: 100 ng/ml; for inhibition at 1 µg/mL: 1 ug/ml; for inhibition at 10 µg/mL: 10 ug/ml. It counts as cell-based. Here is the method:
(§1) The ability to inhibit TNF-α production was analyzed in THP-1 cells, a human acute monocytic leukemia cell line that is widely used to assess monocyte functions. In order to induce maturation, THP-1 cells were plated at 1×10^6 cells/ml and pretreated with 5 nM PMA for two days. Differentiated THP-1 cells were pretreated with various concentrations of TTL3 or its analogs for 1 hour, followed by a 4 hour incubation with 1 μg of LPS (Sigma, St. Louse, Mo.). The p38 inhibitor (SB 203580; Sigma, St. Louis, Mo.) was used as a positive control. Supernatants were collected and stored at −80° C. until assayed for TNF-α activity. A resazurin assay was performed for each analog to evaluate the effects on cell metabolism and viability.
To detect the presence of human TNFα, fluorescent linked immunosorbent assay or FLISA was developed and optimized. 100 μl of beads (6 μm, Spherotech) coated with goat anti-mouse IgG (1 mg/ml, R and D Systems) were mixed with 4 μl of biotin-anti-hTNFα mouse IgG (0.1 mg/ml, R and D Systems) and 2 μl of FMAT Blue-streptavidin (0.1 mg/ml, Applied Biosystems). 50 μl of the mixtures was combined with 50 μl of the supernatant isolated from treated THP-1 cells and added to the black wall FLISA plates (Applied Biosystems) and incubated overnight. The plates were scanned at factory set PMT setting, and the values were plotted and analyzed by Applied Biosystems software.

For a further series, the system named is THP-1 cells. In words: resazurin viability assay in THP-1 cells. The series is classed as cell-based, human. The note with it: * mild, ** marked reduction in viability, in % (unit assumed). Here is the method:
as §1
A preparation of the dye resazurin, commercially-available as alamarBlue™ (Biosource International Inc., 820 Flynn Road, Camarillo, Calif.), was used for the cytotoxicity assays described herein. The assays and experiments described herein were conducted in substantially the same manner as described in the scientific literature, for example, in Magnani, E. and Bettini, E., “Resazurin detection of energy metabolism changes in serum-starved PC12 cells and of neuroprotective agent effect,” Brain Res Protoc., 2000 July; 5(3):266-72 and in Nociari M. M., Shalev A., Benias P., and Russo C. J, “A novel one-step, highly sensitive fluorometric assay to evaluate cell-mediated cytotoxicity,” Immunol. Methods 213, 157-167 (1998), see also U.S. Pat. No. 5,501,959, entitled “Antibiotic and Cytotoxic Drug Susceptibility Assays using Resazurin and Poising Agents,” the entire specification of which is incorporated herein by reference.
On the technique in general: The colour change of resazurin is a common sign of viable cells or microbes.

Entries after “also recorded” stand apart in the source; their conditions may differ.

For orientation: IC50 means the concentration at which inhibition is half-maximal. As usually defined, the inhibition is the change of the read-out against control, counted positive when it falls.

Chain of NIK (Q99558 whole entry): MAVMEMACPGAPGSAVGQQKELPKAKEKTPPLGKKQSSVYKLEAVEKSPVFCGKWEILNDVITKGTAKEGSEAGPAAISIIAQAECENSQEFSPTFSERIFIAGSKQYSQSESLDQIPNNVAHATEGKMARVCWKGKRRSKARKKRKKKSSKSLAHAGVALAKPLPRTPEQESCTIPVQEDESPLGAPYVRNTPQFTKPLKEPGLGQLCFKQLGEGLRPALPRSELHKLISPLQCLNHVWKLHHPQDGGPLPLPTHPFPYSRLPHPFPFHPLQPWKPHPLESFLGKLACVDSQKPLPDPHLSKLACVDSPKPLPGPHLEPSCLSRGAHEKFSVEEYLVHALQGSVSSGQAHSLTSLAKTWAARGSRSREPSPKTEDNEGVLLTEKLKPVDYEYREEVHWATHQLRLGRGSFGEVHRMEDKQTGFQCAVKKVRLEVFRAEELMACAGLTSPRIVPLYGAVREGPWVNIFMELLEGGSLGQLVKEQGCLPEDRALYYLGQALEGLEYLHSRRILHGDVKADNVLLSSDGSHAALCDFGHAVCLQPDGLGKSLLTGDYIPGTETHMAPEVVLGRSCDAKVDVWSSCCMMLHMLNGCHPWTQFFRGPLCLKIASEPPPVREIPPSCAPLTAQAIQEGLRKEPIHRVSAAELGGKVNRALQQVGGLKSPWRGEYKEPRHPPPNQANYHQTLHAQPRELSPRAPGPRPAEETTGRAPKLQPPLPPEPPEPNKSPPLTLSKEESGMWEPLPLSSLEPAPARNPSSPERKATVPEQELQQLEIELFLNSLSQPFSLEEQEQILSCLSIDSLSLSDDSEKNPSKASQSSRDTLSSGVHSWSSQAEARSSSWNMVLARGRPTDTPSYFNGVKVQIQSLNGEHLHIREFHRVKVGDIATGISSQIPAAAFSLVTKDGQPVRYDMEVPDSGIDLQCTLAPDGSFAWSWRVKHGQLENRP

In the case of `C=CC(=O)C1(C)CCCC2(C)C3=CCC(C)(C=C)C[C@@H]3CC[C@H]12` (stereo in doubt) [NPI-1387, 1-[(1S,4aS,7R)-1,4a,7-Trimethyl-7-vinyl-1,2,3,4,4a,6,7,8,8a,9,10,10a-dodecahydro-1-phenanthrenyl]-2-propen-1-one], in the series on B16-F10 melanoma cells, the “% cytotox” value stood at 92% and the IC50 amounted to 7.5 µM. The compound also registered an IC50 in the series on B16-F10 melanoma cells (Mus musculus, B16-F10, 48 h) of 6.2 µM.

On to `C=C[C@@]1(C)CCC=C2[C@H]1CC[C@@H]1[C@](C)(C(=O)NC3CCCCC3)CCC[C@@]21C` [Formula (IIB-A1), N-Cyclohexylamide Derivative of TTL], for which, at NIK, the “inhibition of the NIK kinase activity” value is recorded as 70%. Besides, the ear edema result with TPA-induced ear edema is listed as “inhibit TPA-induced ear edema”; in the series with TPA-induced ear edema (listed as formula (IIB-A1)) it was “significantly reduced”. In addition, in the series on TPA-induced ear edema, the myeloperoxidase activity result is “significantly attenuated”.

With `C=C[C@@]1(C)CCC=C2[C@H]1CC[C@@H]1[C@](C)(C(=O)N3CCOCC3)CCC[C@@]21C` [LT-1-85], in series [1], the inhibition at 0.1 µg/mL was determined as 10%, the inhibition at 1 µg/mL came to 45% and the inhibition at 10 µg/mL came to 55%. Further, the “Effect on Cell Viability” value in the series with THP-1 cells (100 ng/ml) is given as 100. The “Effect on Cell Viability” value in the series on THP-1 cells (1 ug/ml) is 100. For the same compound, the “Effect on Cell Viability” value in the series on THP-1 cells (10 ug/ml) is recorded as 80*.

For `C=C[C@@]1(C)CCC=C2[C@H]1CC[C@@H]1[C@](C)(C(=O)OC)CCC[C@@]21C` [TTL3], in series [1], the inhibition at 0.1 µg/mL came to 30%, the inhibition at 1 µg/mL was found to be 55% and the inhibition at 10 µg/mL worked out at 70%. In addition, the “Effect on Cell Viability” value with THP-1 cells (100 ng/ml) is on record as 100. In addition, in the series on THP-1 cells (1 ug/ml), the “Effect on Cell Viability” value amounted to 100. In addition, the “Effect on Cell Viability” value with THP-1 cells (10 ug/ml) is 100. Further, the “inhibition of the kinase activity of NIK” value against NIK (1 μM directly added to the in vitro NIK kinase assay) is on record as 48%. In addition, the “inhibition of the NIK kinase activity” value on NIK stood at 70%. In the series with TPA-induced ear edema, the ear edema entry was “significantly reduced; also recorded: inhibit TPA-induced ear edema” and the myeloperoxidase activity result is reported as “significantly attenuated”.

(Values after US7893299B2, “Interleukin-1 and tumor necrosis factor-αmodulators; syntheses of such modulators and methods of using such modulators” (Nereus Pharmaceuticals, Inc., priority 2005, dated 2011).)
